Laboratory results: paper PMC10143232, “Dihydropyrimidone Derivatives as Thymidine Phosphorylase Inhibitors: Inhibition Kinetics, Cytotoxicity, and Molecular Docking” (Molecules, 2023)
Entries after “also recorded” stand apart in the source; their conditions may differ.

How the values were obtained:
[1] = biological target: T1, Thymidine phosphorylase (TP) (Escherichia coli, UniProt P07650); assay: Thymidine phosphorylase inhibition assay (spectrophotometric, 290 nm); assay type: biochemical, E. coli; conditions: for inhibition at 500 µM: pH 7, E. coli TP, test compound 10 µL of 0.5 mM in 200 µL, thymidine substrate, 30 °C, pH 7.0, read-out: Thymidine Phosphorylase Inhibitory Activity % Inhibition; for IC50: E. coli TP, n = 3, NA: not active, read-out: Thymidine Phosphorylase Inhibitory Activity IC50 ± SEM
T1 construct: purchased Sigma Aldrich, USA
T1 sequence (P07650 whole entry): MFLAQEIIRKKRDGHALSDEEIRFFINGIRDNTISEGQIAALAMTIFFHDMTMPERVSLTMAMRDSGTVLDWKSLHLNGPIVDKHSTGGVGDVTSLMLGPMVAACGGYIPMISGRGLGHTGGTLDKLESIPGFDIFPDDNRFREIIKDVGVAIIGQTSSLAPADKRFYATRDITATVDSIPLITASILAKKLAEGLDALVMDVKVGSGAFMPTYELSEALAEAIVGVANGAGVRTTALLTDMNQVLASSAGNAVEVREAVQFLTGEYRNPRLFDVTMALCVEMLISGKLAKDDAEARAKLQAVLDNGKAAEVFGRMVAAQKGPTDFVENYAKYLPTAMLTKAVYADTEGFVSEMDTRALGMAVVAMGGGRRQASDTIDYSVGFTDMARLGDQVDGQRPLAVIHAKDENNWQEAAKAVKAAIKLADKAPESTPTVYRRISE
Experimental: Thymidine phosphorylase (source: E. coli, EC Number 2.4.2.4), thymidine (substrate), and potassium phosphate monobasic (as buffer) were acquired from Sigma Aldrich, USA. […] Dimethylsulfoxide (DMSO), used as a solvent, was obtained from Fisher Scientific, Schwerte, Germany.
Reaction was performed in 96-well plates and in triplicates. The 200 µL reaction mixture was comprised of 10 µL of the test compound (0.5 mM; dissolved in DMSO), 150 µL of potassium phosphate buffer (pH 7.0, 50 mM), and 20 µL of TP enzyme (0.058 unit/well). The 96-well plate containing all these reagents was then incubated at 30 °C for 10 min.
SoftMax Pro 4.8 software (Molecular Devices, San Jose, CA, USA) was used to analyse the results.
(§1) EZ-FIT, enzyme kinetics software (Perrella Scientific, Inc., Amherst, GA, USA) was used to calculate the IC50 values. In order to analyse the kinetic parameter, Grafit version 7.0 (Erithacus Software Ltd., Horley, UK) was used.

[2] = biological target: T1, Thymidine phosphorylase (TP); assay: Mechanistic (kinetic) studies of TP inhibition; assay type: biochemical; conditions: E. coli TP; for Type of Inhibition: Lineweaver–Burk, Dixon plots; for Ki: inhibitor 200–500 µM, thymidine 0.1875–1.5 mM, read-out: Ki ± SEM
Text: Kinetic studies are used for the investigation of chemical reactions in terms of their reaction rates, reaction mechanisms, and the factors that affect these parameters. Herein, it is used determine the type/mechanism of inhibition of dihydropyrimidone derivatives.
as §1

MTT cytotoxicity assay = assay type: cell-based; conditions: 3T3 mouse fibroblast cells, 48 h, test compounds 1 to 30 µM, NC: non-cytotoxic, read-out: Cytotoxicity Studies Cell Viability (%)
Experimental: (§2) Cytotoxicity of active compounds were evaluated employing a standard MTT calorimetric assay. Mouse fibroblast (3T3 cell line) acquired from American Type Culture Collection (ATCC), Virginia, USA, was cultured in DMEM (Dulbecco’s modified eagle medium). In total, 5% FBS (fetal bovine serum), penicillin (100 IU/mL), and streptomycin ([…]) were then added to the medium in […] flasks, and kept in a CO2 incubator at 37 °C. The harvested cell was then diluted with a specific medium. Haemocytometer was used for the quantification of cells. After that, the culture of cell having concentration of 5x104 (cells/mL) was prepared, inoculated into 96-well plates (100 µL/well), and then incubated overnight. After incubation, the old medium was removed, and fresh medium (200 µL) was added. Then different concentrations of test compounds (ranging from 1 to 30 µM) were added. After incubation of 48 h, each well received 200 µL of MTT dye (0.5 mg/mL), and further incubated for a duration of 4 h. After 4 h, 100 µL of DMSO was introduced into each well of the 96-well plate. The reduction of MTT to formazan was measured by recording absorbance at 540 nm with the help of a microplate reader (SpectraMax 384, Molecular Devices, San Jose, CA, USA).

[3] = test system: 3T3 (mouse fibroblast) cell line; assay: MTT cytotoxicity assay; assay type: cell-based
Experimental: as §2

E. coli TP = test system: E. coli TP; set-up: method as in earlier work; conditions: read-out: 50% inhibitory concentration (IC50); purified E. coli TP; conversion of dThd to Thy; ref [5]; cited from earlier work

SMILES	inhibition at 500 µM [1]	Type of Inhibition [2]	IC50 [1]	Ki [2]	viability at 48 h (MTT cytotoxicity assay)	Cytotoxicity against 3T3 cells (in words) [3]	IC50 (E. coli TP)
O=c1[nH]c(=O)c2cc[nH]c2[nH]1 [7-Deazaxanthine, reference compound]	82%	Non-Competitive	–	–	–	–	–
COC(=O)C1=C(C)NC(=O)NC1c1ccccc1 (stereo not drawn) [Compound 1, Methyl 6-methyl-2-oxo-4-phenyl-1,2,3,4-tetrahydropyrimidine-5-carboxylate]	84%	Non-Competitive	314.3 ± 0.9 µM	326.3 ± 0.002 µM	57%	non-cytotoxic; also recorded: non-toxic	–
COC(=O)C1=C(C)NC(=O)NC1c1ccc([N+](=O)[O-])cc1 (stereo not drawn) [Compound 12, Methyl 6-methyl-4-(4-nitrophenyl)-2-oxo-1,2,3,4-tetrahydropyrimidine-5-carboxylate]	91.5%	Non-Competitive	303.5 ± 0.4 µM	297.6 ± 0.006 µM	57%	non-cytotoxic; also recorded: non-toxic	–
COC(=O)C1=C(C)NC(=O)NC1c1ccsc1 (stereo not drawn) [Compound 24, Methyl 6-methyl-2-oxo-4-(thiophen-3-yl)-1,2,3,4-tetrahydropyrimidine-5-carboxylate]	79.6%	–	350.6 ± 0.6 µM	–	82%	–	–
COC(=O)C1=C(C)NC(=O)NC1c1ccc(OC)c(OC)c1 (stereo not drawn) [Compound 25, Methyl 4-(3,4-dimethoxyphenyl)-6-methyl-2-oxo-1,2,3,4-tetrahydropyrimidine-5-carboxylate]	59%	–	424.1 ± 0.9 µM	–	99%	–	–
COC(=O)C1=C(C)NC(=O)NC1c1ccc(N(C)C)cc1 (stereo not drawn) [Compound 26, Methyl 4-(4-(dimethylamino)phenyl)-6-methyl-2-oxo-1,2,3,4-tetrahydropyrimidine-5-carboxylate]	92.3%	–	350 ± 3.7 µM	–	57%	–	–
COC(=O)C1=C(C)NC(=O)NC1c1ccc(O)c(Cl)c1 (stereo not drawn) [Compound 28, Methyl 4-(3-chloro-4-hydroxyphenyl)-6-methyl-2-oxo-1,2,3,4-tetrahydropyrimidine-5-carboxylate]	67.5%	–	404.6 ± 1 µM	–	95%	–	–
COC(=O)C1=C(C)NC(=O)NC1c1ccc(OC(C)=O)c(OC)c1 (stereo not drawn) [Compound 29, Methyl 4-(4-acetoxy-3-methoxyphenyl)-6-methyl-2-oxo-1,2,3,4-tetrahydropyrimidine-5-carboxylate]	76%	–	400.5 ± 0.6 µM	–	80%	–	–
COC(=O)C1=C(C)NC(=O)NC1c1cc(OC)c(O)c(OC)c1 (stereo not drawn) [Compound 30, Methyl 4-(4-hydroxy-3,5-dimethoxyphenyl)-6-methyl-2-oxo-1,2,3,4-tetrahydropyrimidine-5-carboxylate]	69.6%	–	396.7 ± 1.5 µM	–	75%	–	–
COC(=O)C1=C(C)NC(=O)NC1c1ccc(C)s1 (stereo not drawn) [Compound 32, Methyl 6-methyl-4-(5-methylthiophen-2-yl)-2-oxo-1,2,3,4-tetrahydropyrimidine-5-carboxylate]	58.3%	–	485.7 ± 1.5 µM	–	85%	–	–
COC(=O)C1=C(C)NC(=O)NC1c1ccc(C(F)(F)F)cc1 (stereo not drawn) [Compound 33, Methyl 6-methyl-2-oxo-4-(4-(trifluoromethyl)phenyl)-1,2,3,4-tetrahydropyrimidine-5-carboxylate]	73.6%	Non-Competitive	322.6 ± 1.6 µM	311.4 ± 0.004 µM	61%	non-cytotoxic; also recorded: non-toxic	–
COC(=O)C1=C(C)NC(=O)NC1c1ccc(Cl)cc1 (stereo not drawn) [Compound 34, Methyl 4-(4-chlorophenyl)-6-methyl-2-oxo-1,2,3,4-tetrahydropyrimidine-5-carboxylate]	66.3%	–	443.9 ± 0.9 µM	–	72%	–	–
Oc1ncnc2c1ncn2[C@@H]1O[C@H](COC(c2ccccc2)(c2ccccc2)c2ccccc2)[C@@H](O)[C@H]1O [KIN59, 5′-O-tritylinosine]	–	–	–	–	–	–	44 ± 3 µM
